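How tested: cells in 96-well plates exposed to compound for 48 hours at five concentrations. GI50: concentration for 50% inhibition of growth. At the TGI there is no net growth.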
Experiments:
Test in all cases: NCI tumour cell line growth inhibition, 48 h
[1] = tested on: IGROV1 ovarian
[2] = tested on: U251 CNS
[3] = tested on: T-47D breast
[4] = tested on: LOX IMVI melanoma
[5] = tested on: SR leukemia
[6] = tested on: NCI-H226 lung
[7] = tested on: OVCAR-8 ovarian
[8] = tested on: DU-145 prostate
[9] = tested on: EKVX NSCLC
[10] = tested on: ACHN renal

Row | SMILES | GI50 [1] [µM] | TGI [1] [µM] | GI50 [2] [µM] | TGI [2] [µM] | GI50 [3] [µM] | TGI [3] [µM] | GI50 [4] [µM] | TGI [4] [µM] | GI50 [5] [µM] | TGI [5] [µM] | GI50 [6] [µM] | TGI [6] [µM] | GI50 [7] [µM] | TGI [7] [µM] | GI50 [8] [µM] | TGI [8] [µM] | GI50 [9] [µM] | TGI [9] [µM] | GI50 [10] [µM] | TGI [10] [µM]
1 | O=C(NNC1=NS(=O)(=O)c2ccccc2N1c1ccccc1)c1cnccn1 | > 100 | > 100 | > 100 | > 100 | > 100 | > 100 | > 100 | > 100 | > 100 | > 100 | > 100 | > 100 | > 100 | > 100 | > 100 | > 100 | > 100 | > 100 | > 100 | > 100
2 | O=C(O)c1cc(-c2ccc(-c3ccccc3)cc2)nc2cc3ccccc3cc12 |  | > 100 |  | > 100 |  | > 100 |  | > 100 |  | > 100 |  | > 100 |  | > 100 |  | > 100 |  | > 100 |  | > 100
3 | CN(C)Cc1ccc(O)c(CN(C)C)n1 |  | > 100 |  | > 100 |  | > 100 |  | > 100 |  | > 100 |  | > 100 |  | > 100 |  | > 100 |  | > 100 |  | > 100
4 | Cn1cc(Nc2nccc(-c3ccc4c(c3)CN(C3COC3)CC[C@H]4NC(=O)c3cn(C(C)(C)C)nn3)n2)cn1 | 32 | > 100 | > 100 | > 100 | 47.9 | > 100 | 38.5 | > 100 | > 100 | > 100 | 38.9 | > 100 | > 100 | > 100 | > 100 | > 100 | > 100 | > 100 | 66.3 | > 100
5 | Cc1ccc(/C=C(/C#N)n2nnc3cccc(F)c32)cc1 | 0.453 | 10.6 | 0.489 | 14.4 | 0.509 | > 100 | 0.409 | 1.81 | 0.122 | > 35.5 | 1.76 | 8.31 | 0.594 | > 100 | 0.332 | 7.13 | 0.863 | 18.7 | 0.579 | 4.46
6 | O=C(Nc1nc2ccc(OC(F)(F)F)cc2s1)c1ccc(F)cc1 | 3.89 | > 100 | 3.98 | > 100 | 2.64 | 9.78 | 3.21 | 9.03 | 3.68 | 14.1 | 2.81 | > 100 | 4.22 | > 100 | 3.44 | > 100 | 2.65 | 10.6 | 2.4 | 6.18
7 | COc1ccc(-c2cc(-c3ccc(Cl)cc3)nc(SCCCC(=O)NO)n2)cc1OC | 1.04 | 2.69 | 0.799 | 7.34 | 1.88 | 18.1 | 0.345 | 1.44 | 0.354 | > 100 | 1.2 | 5.43 | 0.486 | > 21 | 0.811 | 4.73 | 1.04 | 8.89 | 0.364 | 2.04

Reference: PubChem BioAssay (NCI)
